Assay results from PubChem BioAssay (NCI).
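Step 1: Grow cells in 96-well plates. Step 2: Expose to compound for 48 hours at 5 concentrations. Step 3: Interpolate endpoints linearly; if unreached, use highest concentration. GI50 marks 50% less growth. TGI: concentration producing complete growth inhibition.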

Assays:
Test in all cases: NCI tumour cell line growth inhibition, 48 h
A498 renal = system: A498 renal
NCI/ADR-RES ovarian = system: NCI/ADR-RES ovarian
MDA-MB-231 breast = system: MDA-MB-231 breast
M14 melanoma = system: M14 melanoma
HT29 colon = system: HT29 colon
RPMI-8226 leukemia = system: RPMI-8226 leukemia
CAKI-1 renal = system: CAKI-1 renal
HCC-2998 colon = system: HCC-2998 colon
OVCAR-3 ovarian = system: OVCAR-3 ovarian
EKVX NSCLC = system: EKVX NSCLC

| SMILES | GI50 (A498 renal) [µM] | TGI (A498 renal) [µM] | GI50 (NCI/ADR-RES ovarian) [µM] | TGI (NCI/ADR-RES ovarian) [µM] | GI50 (MDA-MB-231 breast) [µM] | TGI (MDA-MB-231 breast) [µM] | GI50 (M14 melanoma) [µM] | TGI (M14 melanoma) [µM] | GI50 (HT29 colon) [µM] | TGI (HT29 colon) [µM] | GI50 (RPMI-8226 leukemia) [µM] | TGI (RPMI-8226 leukemia) [µM] | GI50 (CAKI-1 renal) [µM] | TGI (CAKI-1 renal) [µM] | GI50 (HCC-2998 colon) [µM] | TGI (HCC-2998 colon) [µM] | GI50 (OVCAR-3 ovarian) [µM] | TGI (OVCAR-3 ovarian) [µM] | GI50 (EKVX NSCLC) [µM] | TGI (EKVX NSCLC) [µM] |
| --- | --- | --- | --- | --- | --- | --- | --- | --- | --- | --- | --- | --- | --- | --- | --- | --- | --- | --- | --- | --- |
| COC(=O)[C@H](CCCCNC(=O)OCc1ccccc1)NC(=O)[C@@H](NC(=O)Nc1cc(C(F)(F)F)cc(C(F)(F)F)c1)C(C)C | > 10 | > 10 | > 10 | > 10 | > 10 | > 10 | > 10 | > 10 | > 10 | > 10 | > 10 | > 10 | > 10 | > 10 | > 10 | > 10 | > 10 | > 10 |  |  |
| CNC(=O)NCCN1N=C(C)/C(=C\c2ccccc2)CC1=O |  | > 100 |  |  |  |  |  | > 100 |  | > 100 |  | > 100 |  | > 100 |  | > 100 |  | > 100 |  |  |
| CCOP(=O)(OCC)C(NC(c1ccccc1)c1ccccc1)c1ccc(C(C)C)cc1 (stereo not drawn) |  |  | 2.14 | 7.52 | 6.12 | 20.8 | 2.13 | 4.99 | 6.27 | 42.1 | 2.65 | 9.99 | 3.23 | 13.1 | 5.49 | 18.2 | 1.87 | 6.15 | 6.01 | 20.4 |
| C=C1C(=O)O[C@H]2[C@H]1CC/C(COC(=O)N[C@H](Cc1c[nH]c3ccccc13)C(=O)OC)=C\CC[C@@]1(C)O[C@@H]21 | 10.9 | 22.9 | 10.6 | 37.9 | 2 | 5.59 | 2.06 | 6.08 | 2.46 | 7.92 | 2.02 | 5.83 |  |  | 2.25 | 4.6 | 1.44 | 3.07 | 1.8 | 5.66 |
| CC[P+]1(c2ccccc2)CCCCC1 |  |  |  |  |  |  |  | > 100 |  | > 100 |  | > 100 |  | > 100 |  | > 100 |  | > 100 |  | > 100 |
| C=CCC1C(=O)CC2(C)C(CC=C)C(=O)CC12C (stereo not drawn) |  |  |  |  |  |  |  | > 100 |  | > 100 |  | > 100 |  | > 100 |  | > 100 |  | > 100 |  | > 100 |
| O=C1CCc2ccc(O)c(c2)Oc2ccc(cc2)[C@@H]2O[C@@H]2CO1 |  | 70.7 |  |  |  |  |  | > 100 |  | > 100 |  | > 100 |  | > 100 |  | > 100 |  | > 100 |  | > 100 |
| Cc1ccc(/C(=C/C=C(C#N)C#N)Sc2nc3ccccc3s2)cc1 | 20.9 | 35.9 | 4.24 | 18.7 | 2.18 | 5.56 |  |  |  |  |  |  | 2.72 | 8.35 |  |  | 4.49 | 19 | 17.7 | 39.4 |
| N#CC1=C(c2ccccc2)OC2(N)OC(c3ccccc3)=C(C#N)C12C#N (stereo not drawn) |  | > 100 |  |  |  |  |  | > 100 |  | > 100 |  | > 100 |  | > 100 |  | > 100 |  | > 100 |  | > 100 |
| CC1(C)CC[C@]2(CO)CC[C@]3(C)C(=CC[C@@H]4[C@@]5(C)CCNCC(C)(C)[C@@H]5CC[C@]43C)[C@@H]2C1 | 12.5 | 25.1 | 9.4 | 24.9 | 3.49 | 11.6 | 2.05 | 4.14 | 2.69 | 9.4 |  |  | 3.64 | 11.9 | 1.89 | 4.07 | 6.68 | 27.7 | 9.55 | 23.2 |
| O=C(O)c1cc(Cl)cc(Cc2cc(Cl)cc(C(=O)O)c2O)c1O |  | > 100 |  | > 100 |  | > 100 |  | > 100 |  | > 100 |  | > 100 |  | > 100 |  |  |  | > 100 |  | > 100 |
| CC(=N\O)/C(C)=N/O.CC(=N\O)/C(C)=N/O.[Fe].[NH2-].c1c[nH]cn1 | > 100 | > 100 | > 100 | > 100 | > 100 | > 100 | > 100 | > 100 | > 100 | > 100 | > 100 | > 100 | > 100 | > 100 |  |  | > 100 | > 100 | > 100 | > 100 |
| CN(C)CCNC(=O)c1cccc2c1nc(-c1ccncc1)c1ccccc12 |  | 7.67 |  |  |  |  |  | 16.8 |  | 19.4 |  |  |  | 24.5 |  | 16.7 |  | 30.4 |  | 10 |
| CC(=N/NC(N)=S)/C(C)=N/NC(N)=S |  |  |  | > 100 |  | > 100 |  | > 100 |  | > 100 |  | > 100 |  |  |  | > 100 |  | > 100 |  | > 100 |
| O=C(OCc1ccccc1)n1cccc1 |  | > 100 |  |  |  |  |  | > 100 |  | > 100 |  | > 100 |  | > 100 |  | > 100 |  | > 100 |  | > 100 |
| CCOC(=O)CCn1cnc(N)n1 |  |  |  |  |  |  |  | > 100 |  | > 100 |  | > 100 |  | > 100 |  | > 100 |  | > 100 |  | > 100 |
| Cc1ccc(NC(=O)CCC(=O)C2Cc3ccccc3C2=O)cc1C (stereo not drawn) |  | > 100 |  |  |  |  |  | > 100 |  | > 100 |  | > 100 |  | > 100 |  | > 100 |  | > 100 |  | > 100 |
| Oc1cc(O)c2c(c1)OC(c1ccc(O)c(O)c1)C(O)C2c1c(O)cc(O)c2c1OC(c1ccc(O)c(O)c1)C(O)C2 (stereo not drawn) |  | > 100 |  | > 100 |  | > 100 |  | > 100 |  | > 100 |  | > 100 |  | 67.5 |  |  |  | > 100 |  | > 100 |
| O=C1c2ccccc2C(=O)c2sc(Nc3ccc([N+](=O)[O-])cc3)nc21 |  | 34.8 |  |  |  | 6.39 |  | 5.91 |  | 57.7 |  | 9.1 |  | 12 |  | 30.1 |  | 6.82 |  | 23.2 |
| O=C(O)c1[nH]c2c([N+](=O)[O-])cc([N+](=O)[O-])cc2c1C(=O)O |  | > 100 |  | > 100 |  | > 100 |  | > 100 |  | > 100 |  |  |  | > 100 |  | > 100 |  | > 100 |  | > 100 |
